In patent US7297353B2, “Use of anemonin for treating aseptic inflammations” (priority 2000, dated 2007):
Like-named read-outs stand apart in the source and are kept apart here.

Assays:
[1] = tested on: B-lymphocytes from the whole spleen of mice; assay: LPS-induced responsive proliferation of B-lymphocytes ([3H] thymidine); type: cell-based; conditions: for Proliferation of B-lymphoctes LPS stimulation Average of CPM values / Proliferation of B-lymphocytes LPS stimulation Average of CPM values: LPS at 10 μg/ml, 48 hours; for inhibition of LPS-induced responsive proliferation of B-lymphocytes: final concentration range from 1 μg/ml to 100 μg/ml
Protocol: 5.2.1. Mice were sacrificed by removing spondyle, spleen was cut off in a sterile condition and then ground to obtain single cell suspension. After erythrocytes were got rid of the remained cells were diluted to […] with RPMI-1640 culture solution containing 10% fetal bovine serum.
5.2.2. 200 μl solution in total volume (including 100 μl the cell suspension, 50 μl sample and 50 μl ConA or LPS) was dispensed on 96-well plate.
50 μl culture solution containing 10% fetal bovine serum, instead of 50 μl sample, was added as negative control, in which the total volume was also 200 μl.
5.2.3. The cell was cultured at 37° C. and under 5% CO2 in incubator for 48 hours, and [^3H] thymidine (1.9×10^4 Bq) was added to the plate at 25 μl/well 12 hours before the end of culture.
5.2.4. The culture was continued. The plates were then stored at −20° C. in refrigeratory after the culture. The thawed cells were collected to fiberglass membrane (Nitrocellose membrane) with cell collector when detecting. After the addition of Scintillation solution, the quantity of [^3H] thymidine incorporated into DNA of cells was detected by Beta counter (MicroBeta Trilux, PerkinElmer LifeSciences). The proliferation of lymphocytes was indicated by cpm value.
Effect of the medicament on LPS-induced responsive proliferation of B-lymphocytes was examined, said B-lymphocytes were from the whole spleen of mice. LPS at 10 μg/ml final concentration was used as the stimulator to induce responsive proliferation of B-lymphocytes from the whole spleen of ICR homogenous mice (cultured in vitro for 48 hours).

IL-12(p40) = assay: Cytokine production from splenocytes, Sac stimulation, IL-12(p40) (ELISA); type: cell-based, murine; conditions: 24 h
Protocol: For splenocyte cytokine production assay, 5×10^6 cells per well were inoculated into a 24-well tissue culture plate with ConA (5 mg/L) or Sac (1:10000) stimulation. Different concentrations of Anemonin were added in a final volume of 2 ml. Cells were incubated at 37° C., 5% CO2 for 24 h and supernatants were harvested, IFN-γ, IL-10, IL12 (p40) and IL-2 in supernatants were measured by the sandwich enzyme-linked immunosorbent assay (ELISA) as specified by the manufacturer (BD Bioscience pharmingen, US). Concentrations of the cytokine productions were calculated based on standard curves obtained from serial dilutions of murine cytokines (r IFN-γ, rIL-10, rIL12, rIL-2). As shown in Tables C-3 and C-4, high-dose Anemonin (1-100 μg/ml) inhibited all kinds of cytokine release induced by ConA or Sac.

SMILES: O=C1C=CC2(CCC23C=CC(=O)O3)O1 (centres unmarked) [Anemonin, anemonin]
- Proliferation of B-lymphoctes LPS stimulation Average of CPM values ([1]; 0.001 μg/ml, Table B-6): 39272 CPM
- Proliferation of B-lymphoctes LPS stimulation Average of CPM values ([1]; 0.01 μg/ml, Table B-6): 39551 CPM
- Proliferation of B-lymphoctes LPS stimulation Average of CPM values ([1]; 0.1 μg/ml, Table B-6): 39615 CPM
- Proliferation of B-lymphocytes LPS stimulation Average of CPM values ([1]; 1 μg/ml, Table B-5): 10137 CPM
- Proliferation of B-lymphoctes LPS stimulation Average of CPM values ([1]; 1 μg/ml, Table B-6): 32154 CPM
- Proliferation of B-lymphocytes LPS stimulation Average of CPM values ([1]; 10 μg/ml, Table B-5): 190 CPM
- Proliferation of B-lymphoctes LPS stimulation Average of CPM values ([1]; 10 μg/ml, Table B-6): 40840 CPM
- Proliferation of B-lymphocytes LPS stimulation Average of CPM values ([1]; 100 μg/ml, Table B-5): 164 CPM
- Proliferation of B-lymphoctes LPS stimulation Average of CPM values ([1]; 100 μg/ml, Table B-6): 24523 CPM
- inhibition at 0.001 µg/mL ([1]; Mus musculus, 0.001 μg/ml, LPS stimulation, Table B-6, read-out: General assess of activity Enhancement/Inhibition): -7%
- inhibition at 0.01 µg/mL ([1]; Mus musculus, 0.01 μg/ml, LPS stimulation, Table B-6, read-out: General assess of activity Enhancement/Inhibition): -8%
- inhibition at 0.1 µg/mL ([1]; Mus musculus, 0.1 μg/ml, LPS stimulation, Table B-6, read-out: General assess of activity Enhancement/Inhibition): -8%
- inhibition at 1 µg/mL ([1]; Mus musculus, 1 μg/ml, LPS stimulation, Table B-5, read-out: General assess of activity Enhancement/Inhibition): 33%
- inhibition at 1 µg/mL ([1]; Mus musculus, 1 μg/ml, LPS stimulation, Table B-6, read-out: General assess of activity Enhancement/Inhibition): 13%
- inhibition at 10 µg/mL ([1]; Mus musculus, 10 μg/ml, LPS stimulation, Table B-5, read-out: General assess of activity Enhancement/Inhibition): 99%
- inhibition at 10 µg/mL ([1]; Mus musculus, 10 μg/ml, LPS stimulation, Table B-6, read-out: General assess of activity Enhancement/Inhibition): -11%
- inhibition at 100 µg/mL ([1]; Mus musculus, 100 μg/ml, LPS stimulation, Table B-5, read-out: General assess of activity Enhancement/Inhibition): 99%
- inhibition at 100 µg/mL ([1]; Mus musculus, 100 μg/ml, LPS stimulation, Table B-6, read-out: General assess of activity Enhancement/Inhibition): 33%
- inhibition of LPS-induced responsive proliferation of B-lymphocytes [1]: sharply inhibited
- inhibition of LPS-induced responsive proliferation of B-lymphocytes ([1]; listed as anemonin): remarkably inhibited
- IL-12(p40) (IL-12(p40); 0.001 μg/ml): 501 ± 6 pg/mL
- IL-12(p40) (IL-12(p40); 0.01 μg/ml): 446 ± 0 pg/mL
- IL-12(p40) (IL-12(p40); 0.1 μg/ml): 444 ± 3 pg/mL
- IL-12(p40) (IL-12(p40); 1 μg/ml): 293 ± 0 pg/mL
- IL-12(p40) (IL-12(p40); 10 μg/ml): 86 ± 6 pg/mL
- IL-12(p40) (IL-12(p40); 100 μg/ml): 72 ± 4 pg/mL
